ChEMBL document CHEMBL1123701, “Synthesis and quantitative structure-activity relationship analysis of N-triiodoallyl- and N-iodopropargylazoles. New antifungal agents” (1987)
Converted amounts (≈) assume the structure as drawn.

What was measured:
Cryptococcus neoformans = assay: Antifungal activity against Cryptococcus neoformans Cr-1 strain; assay type: functional
[1] = test system: Trichophyton interdigitale; assay: Antifungal activity towards Trichophyton interdigitale; assay type: functional
Candida albicans = assay: Antifungal activity against Candida albicans C-A-24 strain; assay type: functional
Trichophyton benhamiae = assay: Antifungal activity towards Trichophyton mentagrophytes 530324 strain; assay type: functional, Arthroderma benhamiae
Aspergillus fumigatus = assay: Antifungal activity against Aspergillus fumigatus Saito strain; assay type: functional

For COc1ccc(Cl)cc1C(=O)c1cccn1CC(I)=C(I)I, the MIC (Cryptococcus neoformans) was 25 µg/mL (≈ 38.3 µM), the MIC [1] was 12.5 µg/mL (≈ 19.1 µM) and the MIC (Candida albicans) was 25 µg/mL (≈ 38.3 µM). The MIC (Trichophyton benhamiae) was 12.5 µg/mL (≈ 19.1 µM) and the MIC (Aspergillus fumigatus) was 25 µg/mL (≈ 38.3 µM).
Compound IC#CCn1ccnc1 has an MIC (Cryptococcus neoformans) of 6.25 µg/mL (≈ 26.9 µM), an MIC [1] of 6.25 µg/mL (≈ 26.9 µM) and an MIC (Candida albicans) of 12.5 µg/mL (≈ 53.9 µM). The MIC (Trichophyton benhamiae) was 6.25 µg/mL (≈ 26.9 µM) and the MIC (Aspergillus fumigatus) was 12.5 µg/mL (≈ 53.9 µM).
For NC(=O)c1ccc(-c2nnn(CC#CI)n2)cc1, the MIC (Cryptococcus neoformans) was 12.5 µg/mL (≈ 35.4 µM), the MIC [1] was 3.13 µg/mL (≈ 8.86 µM) and the MIC (Candida albicans) was > 100 µg/mL. For the same compound, the MIC (Trichophyton benhamiae) was 6.25 µg/mL (≈ 17.7 µM) and the MIC (Aspergillus fumigatus) was > 100 µg/mL.
Compound O=[N+]([O-])c1ncnn1CC#CI has an MIC (Cryptococcus neoformans) of 0.78 µg/mL (≈ 2.81 µM), an MIC [1] of 0.78 µg/mL (≈ 2.81 µM) and an MIC (Candida albicans) of 3.13 µg/mL (≈ 11.3 µM). The MIC (Trichophyton benhamiae) was 0.39 µg/mL (≈ 1.4 µM) and the MIC (Aspergillus fumigatus) was 0.39 µg/mL (≈ 1.4 µM).
Work on IC#CCn1cccn1 yielded an MIC (Cryptococcus neoformans) of 0.78 µg/mL (≈ 3.36 µM), an MIC [1] of 0.39 µg/mL (≈ 1.68 µM) and an MIC (Candida albicans) of 3.13 µg/mL (≈ 13.5 µM). For the same compound, the MIC (Trichophyton benhamiae) was 0.39 µg/mL (≈ 1.68 µM) and the MIC (Aspergillus fumigatus) was 0.78 µg/mL (≈ 3.36 µM).
CC(C)c1nnn(CC#CI)n1 showed an MIC (Cryptococcus neoformans) of 3.13 µg/mL (≈ 11.3 µM), an MIC [1] of 0.78 µg/mL (≈ 2.83 µM) and an MIC (Candida albicans) of 1.56 µg/mL (≈ 5.65 µM). The MIC (Trichophyton benhamiae) was 0.78 µg/mL (≈ 2.83 µM) and the MIC (Aspergillus fumigatus) was 0.78 µg/mL (≈ 2.83 µM).
With O=[N+]([O-])c1ccc(-c2nnn(CC#CI)n2)cc1 the MIC (Cryptococcus neoformans) was 3.13 µg/mL (≈ 8.81 µM), the MIC [1] was 0.39 µg/mL (≈ 1.1 µM) and the MIC (Candida albicans) was 25 µg/mL (≈ 70.4 µM). It also gave an MIC (Trichophyton benhamiae) of 0.2 µg/mL (≈ 0.563 µM) and an MIC (Aspergillus fumigatus) of 6.25 µg/mL (≈ 17.6 µM).
CCCc1nnnn1CC#CI was tested, and the MIC (Cryptococcus neoformans) was 3.13 µg/mL (≈ 11.3 µM), the MIC [1] was 1.56 µg/mL (≈ 5.65 µM) and the MIC (Candida albicans) was 6.25 µg/mL (≈ 22.6 µM). The MIC (Trichophyton benhamiae) was 0.78 µg/mL (≈ 2.83 µM) and the MIC (Aspergillus fumigatus) was 3.13 µg/mL (≈ 11.3 µM).
In the case of IC#CCn1ccnn1, the MIC (Cryptococcus neoformans) is reported as 1.56 µg/mL (≈ 6.69 µM), the MIC [1] is reported as 0.78 µg/mL (≈ 3.35 µM) and the MIC (Candida albicans) is reported as 3.13 µg/mL (≈ 13.4 µM). The MIC (Trichophyton benhamiae) was 0.78 µg/mL (≈ 3.35 µM) and the MIC (Aspergillus fumigatus) was 0.78 µg/mL (≈ 3.35 µM).
With CC(=O)c1c(C)cn(CC#CI)c1C the MIC (Cryptococcus neoformans) was 25 µg/mL (≈ 83 µM), the MIC [1] was 6.25 µg/mL (≈ 20.8 µM) and the MIC (Candida albicans) was 25 µg/mL (≈ 83 µM). For the same compound, the MIC (Trichophyton benhamiae) was 1.56 µg/mL (≈ 5.18 µM) and the MIC (Aspergillus fumigatus) was 3.13 µg/mL (≈ 10.4 µM).
O=[N+]([O-])c1cn(CC#CI)c(Cl)c1Cl was tested, and the MIC (Cryptococcus neoformans) was 1.56 µg/mL (≈ 4.52 µM), the MIC [1] was 0.39 µg/mL (≈ 1.13 µM) and the MIC (Candida albicans) was 0.78 µg/mL (≈ 2.26 µM). For the same compound, the MIC (Trichophyton benhamiae) was 0.1 µg/mL (≈ 0.29 µM) and the MIC (Aspergillus fumigatus) was 0.39 µg/mL (≈ 1.13 µM).
In the case of O=[N+]([O-])c1c[nH]c(Cl)c1Cl, the MIC (Cryptococcus neoformans) is reported as 25 µg/mL (≈ 138 µM), the MIC [1] is reported as 3.13 µg/mL (≈ 17.3 µM) and the MIC (Candida albicans) is reported as 100 µg/mL (≈ 553 µM). It also gave an MIC (Trichophyton benhamiae) of 6.25 µg/mL (≈ 34.5 µM) and an MIC (Aspergillus fumigatus) of 25 µg/mL (≈ 138 µM).
Cc1nnn(CC#CI)n1 gave an MIC (Cryptococcus neoformans) of 0.78 µg/mL (≈ 3.14 µM), an MIC [1] of 0.78 µg/mL (≈ 3.14 µM) and an MIC (Candida albicans) of 1.56 µg/mL (≈ 6.29 µM). The MIC (Trichophyton benhamiae) was 0.78 µg/mL (≈ 3.14 µM) and the MIC (Aspergillus fumigatus) was 0.78 µg/mL (≈ 3.14 µM).
With O=C(c1ccccc1)c1cccn1CC(I)=C(I)I the MIC (Cryptococcus neoformans) was 6.25 µg/mL (≈ 10.6 µM), the MIC [1] was 3.13 µg/mL (≈ 5.31 µM) and the MIC (Candida albicans) was 6.25 µg/mL (≈ 10.6 µM). For the same compound, the MIC (Trichophyton benhamiae) was 1.56 µg/mL (≈ 2.65 µM) and the MIC (Aspergillus fumigatus) was 6.25 µg/mL (≈ 10.6 µM).
CCOCCc1nnn(CC(I)=C(I)I)n1 gave an MIC (Cryptococcus neoformans) of 1.56 µg/mL (≈ 2.79 µM), an MIC [1] of 0.39 µg/mL (≈ 0.697 µM) and an MIC (Candida albicans) of 3.13 µg/mL (≈ 5.59 µM). The MIC (Trichophyton benhamiae) was 0.2 µg/mL (≈ 0.357 µM) and the MIC (Aspergillus fumigatus) was 0.78 µg/mL (≈ 1.39 µM).
Compound O=[N+]([O-])c1c(Cl)cccc1-c1cn(CC#CI)cc1Cl has an MIC (Cryptococcus neoformans) of 25 µg/mL (≈ 59.4 µM), an MIC [1] of 6.25 µg/mL (≈ 14.8 µM) and an MIC (Candida albicans) of 25 µg/mL (≈ 59.4 µM). For the same compound, the MIC (Trichophyton benhamiae) was 6.25 µg/mL (≈ 14.8 µM) and the MIC (Aspergillus fumigatus) was 12.5 µg/mL (≈ 29.7 µM).
Work on O=[N+]([O-])c1cn(CC#CI)cn1 yielded an MIC (Cryptococcus neoformans) of 0.1 µg/mL (≈ 0.361 µM), an MIC [1] of 0.78 µg/mL (≈ 2.82 µM) and an MIC (Candida albicans) of 6.25 µg/mL (≈ 22.6 µM). For the same compound, the MIC (Trichophyton benhamiae) was 0.2 µg/mL (≈ 0.722 µM) and the MIC (Aspergillus fumigatus) was 0.78 µg/mL (≈ 2.82 µM).
With IC#CCn1cncn1 the MIC (Cryptococcus neoformans) was 0.78 µg/mL (≈ 3.35 µM), the MIC [1] was 0.78 µg/mL (≈ 3.35 µM) and the MIC (Candida albicans) was 3.13 µg/mL (≈ 13.4 µM). It also gave an MIC (Trichophyton benhamiae) of 0.78 µg/mL (≈ 3.35 µM) and an MIC (Aspergillus fumigatus) of 0.39 µg/mL (≈ 1.67 µM).
IC(I)=C(I)Cn1nnnc1C1CC1 was tested, and the MIC (Cryptococcus neoformans) was > 25 µg/mL, the MIC [1] was 1.56 µg/mL (≈ 2.96 µM) and the MIC (Candida albicans) was 25 µg/mL (≈ 47.4 µM). For the same compound, the MIC (Trichophyton benhamiae) was 0.78 µg/mL (≈ 1.48 µM) and the MIC (Aspergillus fumigatus) was 1.56 µg/mL (≈ 2.96 µM).
COC(=O)c1cccn1CC(I)=C(I)I showed an MIC (Cryptococcus neoformans) of 3.13 µg/mL (≈ 5.77 µM), an MIC [1] of 0.39 µg/mL (≈ 0.718 µM) and an MIC (Candida albicans) of 1.56 µg/mL (≈ 2.87 µM). The MIC (Trichophyton benhamiae) was 0.78 µg/mL (≈ 1.44 µM) and the MIC (Aspergillus fumigatus) was 3.13 µg/mL (≈ 5.77 µM).
CC(C)c1nnnn1CC#CI showed an MIC (Cryptococcus neoformans) of 25 µg/mL (≈ 90.6 µM), an MIC [1] of 1.56 µg/mL (≈ 5.65 µM) and an MIC (Candida albicans) of 12.5 µg/mL (≈ 45.3 µM). It also gave an MIC (Trichophyton benhamiae) of 3.13 µg/mL (≈ 11.3 µM) and an MIC (Aspergillus fumigatus) of 6.25 µg/mL (≈ 22.6 µM).
IC(I)=C(I)Cn1cncn1 showed an MIC (Cryptococcus neoformans) of 6.25 µg/mL (≈ 12.8 µM), an MIC [1] of 0.39 µg/mL (≈ 0.801 µM) and an MIC (Candida albicans) of 1.56 µg/mL (≈ 3.2 µM). It also gave an MIC (Trichophyton benhamiae) of 0.78 µg/mL (≈ 1.6 µM) and an MIC (Aspergillus fumigatus) of 0.2 µg/mL (≈ 0.411 µM).
Compound COc1ccc(-c2nnnn2CC(I)=C(I)I)cc1 has an MIC (Cryptococcus neoformans) of 0.78 µg/mL (≈ 1.31 µM), an MIC [1] of 0.39 µg/mL (≈ 0.657 µM) and an MIC (Candida albicans) of 6.25 µg/mL (≈ 10.5 µM). The MIC (Trichophyton benhamiae) was 0.1 µg/mL (≈ 0.168 µM) and the MIC (Aspergillus fumigatus) was 0.78 µg/mL (≈ 1.31 µM).
IC(I)=C(I)Cn1nccn1 gave an MIC (Cryptococcus neoformans) of 1.56 µg/mL (≈ 3.2 µM), an MIC [1] of 0.39 µg/mL (≈ 0.801 µM) and an MIC (Candida albicans) of 0.78 µg/mL (≈ 1.6 µM). It also gave an MIC (Trichophyton benhamiae) of 0.2 µg/mL (≈ 0.411 µM) and an MIC (Aspergillus fumigatus) of 0.39 µg/mL (≈ 0.801 µM).
In the case of O=[N+]([O-])c1c(Cl)cccc1-c1cn(CC(I)=C(I)I)cc1Cl, the MIC (Cryptococcus neoformans) is reported as 12.5 µg/mL (≈ 18.5 µM), the MIC [1] is reported as 6.25 µg/mL (≈ 9.26 µM) and the MIC (Candida albicans) is reported as 12.5 µg/mL (≈ 18.5 µM). For the same compound, the MIC (Trichophyton benhamiae) was 3.13 µg/mL (≈ 4.64 µM) and the MIC (Aspergillus fumigatus) was 12.5 µg/mL (≈ 18.5 µM).
Compound CCCCCc1nnnn1CC#CI has an MIC (Cryptococcus neoformans) of 3.13 µg/mL (≈ 10.3 µM), an MIC [1] of 0.1 µg/mL (≈ 0.329 µM) and an MIC (Candida albicans) of 3.13 µg/mL (≈ 10.3 µM). The MIC (Trichophyton benhamiae) was 0.2 µg/mL (≈ 0.658 µM) and the MIC (Aspergillus fumigatus) was 0.39 µg/mL (≈ 1.28 µM).
